Measured values: patent US20230234917A1, “ASPARAGINE DERIVATIVES AND METHODS OF USING SAME” (priority 2020, published 2023)

Legend:
[1] = molecular target: Full-length WT ClbP (Escherichia coli, UniProt Q0P7K6); test: ClbP molecular (purified protein) enzymatic inhibition assay, fluorogenic substrate; type: biochemical, E. coli
Description: ClbP Molecular (Purified Protein) Assay
1) Full-length WT ClbP was thawed on ice. A diluted enzyme solution (2 nM) was made by mixing 3.57 μL of enzyme with 20 mL of reaction buffer (50 mM Tris pH 8.0, 200 mM NaCl, 0.02% (w/v) n-dodecyl-b-D-maltoside (DDM)).
2) In a 96 well plate, the diluted protein solution (73.5 μL) was mixed with inhibitor (1.5 μL, of varying concentrations, see below) and preincubated for 15 min at room temperature. Then, reaction buffer (75 μL) containing 10 μM fluorogenic substrate was added to initiate the reaction. After addition of substrate, the final concentrations were 1 nM full-length WT ClbP, 5 μM fluorogenic substrate in 50 mM Tris pH 8.0, 200 mM NaCl, 0.02% (w/v) DDM, with either 0, 0.14, 0.41, 1.2, 3.7, 11, 33, or 100 μM inhibitor. For all conditions, the DMSO carryover was 2% (v/v) at the preincubation stage and 1% in the reaction stage. Compound No. III was always present as a control in each plate, and all compounds were tested in singlicate. In previous assays, the Km of the fluorogenic substrate was determined to be approximately 5 μM.
3) Immediately after addition of substrate to enzyme, the plate was transferred into a spectrophotometer held at room temperature. The fluorescence was recorded every 1.5 min for 15 min. The excitation wavelength was 360 nm (20 nm bandwidth), the emission wavelength was 440 nm (20 nm bandwidth), the optics position was bottom, the gain was extended, the light source was a xenon flash lamp, and the read speed was normal.
(§1) 4) The linear portion of the fluorescence increase is at least from 0-6 min, so this time regime is used. The rate of fluorescence increase (A.U./min) for each well in an inhibitor series was normalized to the 0 μM inhibitor condition. The normalized activity as a function of inhibitor concentration was then fit to a three parameter IC50 curve in Graphpad Prism.
(§2) “A” indicates an IC50 value less than 100 μM, “B” indicates an IC50 between 100 and 300 μM, “C” indicates an IC50 above 300 μM.

[2] = molecular target: T1, ClbP (Escherichia coli, UniProt Q0P7K6); test: ClbP cell lysate activity (inhibition) assay, fluorogenic substrate; type: biochemical; conditions: ClbP Lysate Inhibition Assay: IC50, E. coli ClbP+ lysozyme-EDTA lysates, 5 μM fluorogenic substrate, inhibitor 0-300 μM, 37° C., singlicate
Description: Cell Lysate Activity Assay
(§3) 1) E. coli ClbP+ were taken from a frozen stock and streaked onto BHI plates. They were grown aerobically at 37° C. overnight in the incubator.
(§4) 1) A single colony was selected from the plate and inoculated into 30 mL LB in a 50 mL conical vial eight times (240 mL total). The bacteria were grown aerobically overnight (16-20 h) at 37° C. on a nutator with rocking.
1) The saturated overnight culture was centrifuged to create a firm pellet (3,200 g, 10 min, 4° C.). The supernatant was removed and then the pellet was resuspended in 30 mL sterile PBS.
2) The bacteria were centrifuged again (3,200 g, 10 min, 4° C.). The supernatant was removed, and the pellet was resuspended in sterile PBS buffer (3 mL) in each 8 tubes to make a tenfold concentrated bacterial solution.
3) A lysozyme-EDTA (LE) solution was made in ddH2O (0.05 mg/mL lysozyme, 0.25 M EDTA).
4) For each of the eight tubes, LE solution (3 mL) was mixed with concentrated bacterial solution (3 mL). This mixture was incubated at 37° C. for 30 min to generate the lysates.
5) The lysates (192 μL) were mixed with inhibitor (6 μL, final concentration was 300, 100, 33.3, 11.1, 3.7, 1.2, 0.4, or 0 μM). Fluorogenic substrate (2 μL, final concentration 5 μM) was immediately added across the plate to initiate the reaction. As a control, each plate contained Compound No. III in this dose response curve. The final concentration of bacterial lysates was fivefold concentrated compared to the original saturated overnight culture. Carryover from DMSO was 4% (v/v). All compounds were tested in singlicate.
(§5) 6) The plate was loaded into a spectrophotometer preheated to 37° C. The fluorescence was recorded every 2 min for 46 min. The excitation wavelength was 360 nm (20 nm bandwidth), the emission wavelength was 460 nm (20 nm bandwidth), the optics position was bottom, the gain was 65, the light source was a tungsten bulb, and the read speed was normal.
as §1, with “7)” for “4)”, “was 0-20 min.” for “is at least from 0-6 min, so this time regime is used.”
as §2

[3] = molecular target: T1, ClbP; test: ClbP whole cell activity (inhibition) assay, fluorogenic substrate; type: cell-based, E. coli
Description: Whole Cell Activity Assay
as §3, §4
1) The saturated overnight culture was centrifuged to create a firm pellet (3,200 g, 10 min, 4° C.). In a biosafety cabinet, the supernatant was removed and then the pellet was resuspended in 30 mL sterile PBS.
2) The bacteria were centrifuged again (3,200 g, 10 min, 4° C.). The supernatant was removed, and the pellet was resuspended in sterile PBS buffer (6 mL) in each of the 8 tubes. This fivefold concentrated bacterial solution was the working solution.
3) The bacterial working solution (192 μL) was mixed with inhibitor (6 μL, final concentration was 300, 100, 33.3, 11.1, 3.7, 1.2, 0.4, or 0 μM). Fluorogenic substrate (2 μL, final concentration 5 μM) was immediately added across the plate to initiate the reaction. As a control, each plate contained Compound No. III in this dose response curve. The bacterial concentration was fivefold concentrated compared to the original saturated overnight culture. Carryover from DMSO was 4% (v/v). All compounds were tested in singlicate.
as §5, with “4)” for “6)”
as §1, with “5)” for “4)”, “was 10-30 min.” for “is at least from 0-6 min, so this time regime is used.”
as §2

Structure (SMILES)	IC50 [1]	IC50 [2]	IC50 [3]
NC(=O)C[C@@H](NC(=O)CCCC1CCCCC1)C(=O)NCCc1ccccn1 [Compound CCCIII]	< 100 µM	< 100 µM	< 100 µM
CCCCCCCC(=O)N[C@H](CC(N)=O)C(=O)NC[C@@H](C)c1ccccc1 [Compound CCCII]	< 100 µM	< 100 µM	< 100 µM
NC(=O)C[C@@H](NC(=O)CCCCCCCCC(F)(F)F)C(=O)NCCc1ccc(O)cc1 [Compound CCCIV]	< 100 µM	< 100 µM	< 100 µM
CCCCCCCCCC(=O)N[C@H](CC(N)=O)C(=O)NCCc1ccccn1 [Compound CCCIX]	< 100 µM	< 100 µM	< 100 µM
CCCCCCCC(=O)N[C@H](CC(N)=O)C(=O)NC[C@H](C)c1ccccc1 [Compound CCCI]	< 100 µM	< 100 µM	< 100 µM
CN1CCC(CCCC(=O)N[C@H](CC(N)=O)C(=O)NCCc2ccc(O)cc2)CC1 [Compound CCCVIII]	> 300 µM	> 300 µM	< 100 µM
CCCCCCCCCCCC(=O)N[C@H](CC(N)=O)C(=O)NCCc1ccc(O)cc1 [Compound CCCVII]	< 100 µM	< 100 µM	< 100 µM
CCCCCCCC(=O)N[C@H](CC(N)=O)C(=O)NCCc1c(F)cc(O)cc1F [Compound CCCVI]	< 100 µM	< 100 µM	< 100 µM
NC(=O)C[C@@H](NC(=O)CCCCCCC(F)(F)F)C(=O)NCCc1ccc(O)cc1 [Compound CCCV]	< 100 µM	< 100 µM	< 100 µM
CCCCCCCC(=O)N[C@H](CC(N)=O)c1ncnn1Cc1ccccc1 [Compound CCCXII]	> 300 µM	> 300 µM	> 300 µM
CCCCCCCC(=O)N[C@](C)(CC(N)=O)C(=O)NCCc1ccc(O)cc1 [Compound CCCXI]	> 300 µM	> 300 µM	> 300 µM
CCCCCCCCCCCC(=O)N[C@H](CC(N)=O)C(=O)NCCc1ccccn1 [Compound CCCX]	< 100 µM	< 100 µM	> 300 µM
CNCCCCCC(=O)N[C@H](CC(N)=O)C(=O)NCCc1ccc(O)cc1 [Compound CCC]	> 300 µM	> 300 µM	> 300 µM
CCCCCCCC(=O)N[C@H](CC(N)=O)C(=O)N[C@H](C)Cc1ccccc1 [Compound CCIII]	< 100 µM	< 100 µM	< 100 µM
CCCCCCCC(=O)N[C@H](CC(N)=O)C(=O)N[C@@H](C)Cc1ccccc1 [Compound CCIV]	100 to 300 µM	> 300 µM	> 300 µM
CCCCCCCNC(=O)[C@H](CC(N)=O)NC(=O)OCc1ccccc1 [Compound CCIX]	100 to 300 µM	> 300 µM	> 300 µM
CCCCCCCC(=O)N[C@H](CC(N)=O)C(=O)NCc1ccccc1 [Compound CCI]	< 100 µM	< 100 µM	< 100 µM
